Results published in patent US20240279191A1 (The General Hospital Corporation, priority 2021, published 2024).
pIC50: −log10 of the molar value.

Assays:
TEAD2 = TEAD2 (Homo sapiens, UniProt Q15562); experiment: Inhibition of TEAD2 auto-palmitoylation in vitro
TEAD4 = TEAD4 (Homo sapiens, UniProt Q15561); experiment: Inhibition of TEAD4 auto-palmitoylation in vitro
TEAD4, sequence (Q15561 whole entry, species assumed): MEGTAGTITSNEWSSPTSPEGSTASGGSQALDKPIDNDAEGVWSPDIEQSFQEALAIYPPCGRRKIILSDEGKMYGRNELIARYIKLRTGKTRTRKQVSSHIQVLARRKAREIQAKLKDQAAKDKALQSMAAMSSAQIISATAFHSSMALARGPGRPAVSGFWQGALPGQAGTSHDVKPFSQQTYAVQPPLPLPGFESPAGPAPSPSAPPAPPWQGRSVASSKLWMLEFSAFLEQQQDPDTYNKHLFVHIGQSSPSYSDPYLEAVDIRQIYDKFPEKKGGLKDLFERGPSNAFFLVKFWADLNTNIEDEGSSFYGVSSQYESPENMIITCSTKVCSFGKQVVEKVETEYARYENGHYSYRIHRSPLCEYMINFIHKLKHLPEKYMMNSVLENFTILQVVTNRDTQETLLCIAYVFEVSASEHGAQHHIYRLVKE

TEAD2, sequence (Q15562 whole entry): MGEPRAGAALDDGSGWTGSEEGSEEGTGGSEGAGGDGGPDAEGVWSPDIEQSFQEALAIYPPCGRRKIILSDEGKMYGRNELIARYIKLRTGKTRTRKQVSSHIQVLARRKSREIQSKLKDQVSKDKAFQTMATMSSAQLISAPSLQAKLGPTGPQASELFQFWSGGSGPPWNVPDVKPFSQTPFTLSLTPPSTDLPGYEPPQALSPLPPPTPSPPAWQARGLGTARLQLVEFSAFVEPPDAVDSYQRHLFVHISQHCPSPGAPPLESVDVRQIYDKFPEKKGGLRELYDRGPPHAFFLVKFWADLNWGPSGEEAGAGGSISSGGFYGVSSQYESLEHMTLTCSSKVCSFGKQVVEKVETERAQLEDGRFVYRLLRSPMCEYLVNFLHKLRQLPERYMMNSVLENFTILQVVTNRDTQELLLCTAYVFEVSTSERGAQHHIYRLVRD

pIC50 (TEAD2): 6.81
pIC50 (TEAD4): 7.42
Compound: O=C(Nc1ccccc1)N1CCN(C(=O)c2cccc(OCCC3CCCCC3)c2)CC1 [TM2, 4-(3-(2-cyclohexylethoxy)benzoyl)-N-phenylpiperazine-1-carboxamide]
